Where two headings read alike, the source gives them in different places. Marks after values point to notes of the source that are not given here. Numbered stars: 1 amine (or outer) side, 2 acyl side, 3 side chain; on linkers, the order of the positions; unused ones are H or OH. Square brackets hold non-standard residues; d marks the D form. Peptide text beside a SMILES is read from it. * marks the point of attachment. 5FAM = O=C1OC2(c3ccc(O)cc3Oc3cc(O)ccc32)c2ccc(C(=O)*)cc21; NHCH2C6H4(4-CH2CONH2) = NC(=O)Cc1ccc(CN*)cc1; X1 = O=C(Cc1ccc(CN[*:1])cc1)[*:2]
Experiments:
TNFα = TNFα (Homo sapiens, UniProt P01375); experiment: MST binding affinity of resynthesized NNP hits to TNFα; parameters: purchased R&D Systems, Inc. 210-TA/CF; settings: read-out: KD (nM) [95% conf. int], NNP2 library hit, target TNFα, one-site binding model
Sequence of TNFα (P01375 77-233 limits assumed): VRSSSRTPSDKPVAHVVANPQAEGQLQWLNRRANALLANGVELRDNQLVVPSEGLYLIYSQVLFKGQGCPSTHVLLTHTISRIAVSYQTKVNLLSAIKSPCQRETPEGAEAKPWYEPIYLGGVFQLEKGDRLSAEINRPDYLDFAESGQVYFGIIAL
Experimental: (§1) Hit binding affinity to various targets were determined using Microscale Thermophoresis (MST). MST experiments were performed on a Monolith NT.115pico (NanoTemper Technologies GmbH, Munich, Germany). Measurements were performed at room temperature, in triplicate with incubation periods of 15, 30 and 45 minutes. […] Targets were labeled using Nanotemper Monolith 2nd Generation Protein Labeling Kits. RED-MALEIMIDE (Maleimide-647-dye) labeling kit was used for K-Ras and RED-NHS (NHS-647-dye) labeling kit was used for IL-6, IL-6R, TNFα and ASGPR. The buffer for the ASGPR contained 20 mM HEPES pH 7.4, 150 mM NaCl, 10 mM MgCl2, 2 mM CaCl2, 0.05% Pluronic F-127, and 1 mM DTT; for IL-6 contained 20 mM HEPES pH 7.4, 150 mM KCl, 10 mM MgCl2, and 0.1% Pluronic F-127; for the soluble IL-6 receptor 20 mM HEPES pH 7.4, 150 mM NaCl, 10 mM MgCl2, and 0.05% Tween-20; for K-Ras 20 mM HEPES pH 7.4, 150 mM NaCl, 10 mM MgCl2, 0.05% Tween-20 and 1 mM DTT; for TNFα 10 mM HEPES pH 7.4, 150 mM NaCl, 10 mM MgCl2, 0.05% Polysorbate-20. Triplicate data was analyzed using MO.AffinityAnalysis software (NanoTemper Technologies GmbH).

biotinylated GST = experiment: Interference check with biotinylated GST and detection mix
Excerpt: Table 20 below provides an interference check on the synthetic compounds using biotinylated GST, which was used with the detection mix to check for compound effect on fluorescence.

K-Ras = target: T1, K-Ras (Homo sapiens, UniProt P01116, G12V); experiment: MST binding affinity of resynthesized NNP hits to K-Ras
T1 construct: purchased Cytoskeleton Inc. CS-RS04
Experimental: Loading was performed according to the following protocol: The 200 μM stock solution of the target protein was diluted to 10 μM in 20 mM HEPES pH 8.0, 150 mM NaCl, 10 mM MgCl2, 1 mM TCEP, 0.05% Tween-20 (total volume 110 μL). 10 μL were set aside for later labeling quality control. EDTA pH 8.0 (stock concentration 10 mM) was added to the protein solution to a final concentration of 80 μM. GTP (stock concentration 50 mM) was added to the protein solution to a final concentration of 750 μM. The solution was incubated at 30° C. for 2 hours (PCR tube) and then placed on ice for 2 minutes. MgCl2 was added to the protein solution to a final concentration of 100 mM. The resulting protein solution was buffer exchanged into the buffer required in the labeling kit for labeling. […] All the other target molecules (TNFα, IL-6, IL-6R and ASGPR) were used as received without any additional treatment.
as §1

cRaf/K-Ras (G12V) PPI = target: T2, cRaf/K-Ras (G12V) PPI (Homo sapiens, UniProt P01116, G12V); experiment: K-Ras-cRaf HTRF-based PPI profiling; assay type: biochemical; settings: for HillSlope: curve fit of % binding, K-Ras G12V 30 nM, GST-cRaf 10 nM; for blank corrected HTRF: raw data, compounds without fluorescein;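 as to blank corrected HTRF: background is the signal of wells with all components except cRaf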
T2 construct: b-Kras G12V (GppNHp) (aa 2-169); biotin (b-
Experimental: In some experimental embodiments, a buffer was added to the assay wells which included […] HEPES pH 7.4, 150 mM NaCl, 5 mM MgCl2, 1 mM DTT, 0.005% NP40, and 1% DMSO. 5 uL of 3×K-Ras protein was then added to the assay wells, followed by the synthetic compounds which were added using acoustic technology (ECHO, Labcyte) followed by thirty minutes incubation at room temperature. Afterwards, 5 uL of 3×cRaf protein was added to the assay wells and 5 uL of detection mix was then added to the assay wells after 30 minutes. The detection mix included Mab anti-GST-Tb cryptate (Cisbio 61GSTTLB) and streptavidin-XL665 (Ex/Em=(337/665; 620) in PHERAstar (BMG Labtech)). HTRF signal was measured […] later.
The data includes raw data (signal-background without cRaf protein but with all other component), % binding (relative to DMSO controls), and curve fits. Curve fits were performed when the activities at the highest concentration of the synthetic compounds were less than 65%. Tables 18A-18B below includes the raw data (e.g., blank corrected HTRF) and Tables 19A-19B includes the % binding.

[1] = K-Ras, compound with fluorescein on N-term, read-out: KD[nM] in MST (with fluorescein on N-term)
[2] = read-out: KD (nM) [95% conf. int], MST, NNP1 library hit, target K-Ras, one-site binding model

Compound | % signal compared to DMSO (biotinylated GST; assay conc. 0.000508053 μM) [%] | % signal compared to DMSO (biotinylated GST; assay conc. 0.001524158 μM) [%] | % signal compared to DMSO (biotinylated GST; assay conc. 0.004572474 μM) [%] | % signal compared to DMSO (biotinylated GST; assay conc. 0.013717421 μM) [%] | % signal compared to DMSO (biotinylated GST; assay conc. 0.041152263 μM) [%] | % signal compared to DMSO (biotinylated GST; assay conc. 0.12345679 μM) [%] | % signal compared to DMSO (biotinylated GST; assay conc. 0.37037037 μM) [%] | % signal compared to DMSO (biotinylated GST; assay conc. 1.111111111 μM) [%] | % signal compared to DMSO (biotinylated GST; assay conc. 3.333333333 μM) [%] | Kd (K-Ras; [1]) [nM] | Kd (K-Ras; [2]) [nM] | HillSlope (cRaf/K-Ras (G12V) PPI) | blank corrected HTRF (cRaf/K-Ras (G12V) PPI; conc. 1.00E−05) | blank corrected HTRF (cRaf/K-Ras (G12V) PPI; conc. 1.11E−06) | blank corrected HTRF (cRaf/K-Ras (G12V) PPI; conc. 3.33E−06) | blank corrected HTRF (cRaf/K-Ras (G12V) PPI; conc. 3.70E−07) | blank corrected HTRF (cRaf/K-Ras (G12V) PPI; conc. 4.12E−08) | also measured
CC(C)C[C@H](NC(=O)[C@@H](CCCNC(=N)N)NC(=O)[C@@H](C)NC(=O)Cc1ccc(CNC(=O)[C@H](Cc2ccccc2)NC(=O)[C@@H](CCCNC(=N)N)NC(=O)[C@@H](CC(N)=O)NC(=O)Cc2ccc(CNC(=O)[C@H](Cc3ccccc3)NC(=O)[C@@H](CCCCN)NC(=O)[C@@H](C)NC(=O)Cc3ccc(CNC(=O)[C@H](C)NC(=O)[C@@H](CCCNC(=N)N)NC(=O)[C@@H](Cc4ccccc4)NC(=O)Cc4ccc(CNC(=O)[C@H](CC(C)C)NC(=O)[C@@H](CCCCN)NC(=O)[C@@H](CC(C)C)NC(=O)Cc5ccc(CNC(=O)[C@H](CC(C)C)NC(=O)[C@@H](CCCNC(=N)N)NC(=O)[C@@H](CC(C)C)NC(=O)Cc6ccc(CNC(=O)[C@H](CC(C)C)NC(=O)[C@@H](CC(C)C)NC(=O)[C@@H](Cc7ccc(O)cc7)NC(=O)c7ccc8c(c7)C(=O)OC87c8ccc(O)cc8Oc8cc(O)ccc87)cc6)cc5)cc4)cc3)cc2)cc1)C(=O)NCc1ccc(CC(=O)N[C@H](Cc2c[nH]c3ccccc23)C(=O)N[C@H](CCCCN)C(=O)N[C@@H](CC(C)C)C(=O)NCc2ccc(CC(=O)N3CCC[C@@H]3C(=O)N[C@H](C)C(=O)N[C@@H](C)C(=O)NCc3ccc(CC(N)=O)cc3)cc2)cc1 [TNF-31-14] (5FAM-[dY][dL]L[X1][dL][dR]L[X1][dL][dK]L[X1][dF][dR]A[X1][dA][dK]F[X1][dN][dR]F[X1][dA][dR]L[X1][dW][dK]L[X1][dP][dA]A-{NHCH2C6H4(4-CH2CONH2)}) | – | – | – | – | – | – | – | – | – | – | – | – | – | – | – | – | – | Kd (TNFα): 35 nM
CC(C)C[C@H](NC(=O)[C@@H](CCC(=O)O)NC(=O)[C@H]1CCCN1C(=O)[C@@H](Cc1ccccc1)NC(=O)[C@@H](CO)NC(=O)c1ccc2c(c1)C(=O)OC21c2ccc(O)cc2Oc2cc(O)ccc21)C(=O)NCc1ccc(CC(=O)NCC(=O)N[C@@H](C(=O)N2CCC[C@@H]2C(=O)N[C@H](CCCNC(=N)N)C(=O)N[C@@H](C)C(=O)NCc2ccc(CC(=O)N3CCC[C@@H]3C(=O)N[C@H](CO)C(=O)N[C@H](CCC(=O)O)C(=O)N[C@H](CCCNC(=N)N)C(=O)NCC(=O)NCc3ccc(CC(=O)N4CCC[C@@H]4C(=O)N[C@H](CCCCN)C(=O)N[C@H](Cc4ccc(O)cc4)C(=O)N[C@H](CCCNC(=N)N)C(=O)N[C@@H](Cc4ccccc4)C(=O)NCc4ccc(CC(=O)N[C@H](CCCNC(=N)N)C(=O)N[C@H](Cc5ccccc5)C(=O)N5CCC[C@@H]5C(=O)N[C@@H](C(=O)NCC(=O)NCc5ccc(CC(=O)NCC(=O)N[C@H](Cc6c[nH]c7ccccc67)C(=O)N[C@H](Cc6c[nH]cn6)C(=O)N[C@H](CCCNC(=N)N)C(=O)N[C@@H](C)C(=O)NCc6ccc(CC(N)=O)cc6)cc5)C(C)C)cc4)cc3)cc2)C(C)C)cc1 [KRAS-1-9] (5FAM-[dS][dF][dP][dE]L[X1]G[dV][dP][dR]A[X1][dP][dS][dE][dR]G[X1][dP][dK][dY][dR]F[X1][dR][dF][dP][dV]G[X1]G[dW][dH][dR]A-{NHCH2C6H4(4-CH2CONH2)}) | 99.72 | 102.8 | 100.2 | 101.4 | 102.8 | 101.5 | 99.8 | 92.41 | 69.59 | 32 | 32 | −0.9902 | 4707 | 7790 | 3269 | 12513 | 14333 | % signal compared to DMSO (biotinylated GST; assay conc. 10 μM): 53.69* %; blank corrected HTRF (cRaf/K-Ras (G12V) PPI; conc. 1.37E−08): 12329; blank corrected HTRF (cRaf/K-Ras (G12V) PPI; conc. 4.57E−09): 13688
CC(C)C[C@H](NC(=O)[C@@H](CCC(=O)O)NC(=O)[C@@H](CCCNC(=N)N)NC(=O)[C@@H](CO)NC(=O)[C@H](NC(=O)Cc1ccc(CNC(=O)[C@H](C)NC(=O)[C@@H](CO)NC(=O)CNC(=O)[C@@H](CO)NC(=O)[C@H]2CCCN2C(=O)Cc2ccc(CNC(=O)[C@H](Cc3ccccc3)NC(=O)[C@@H](CCC(=O)O)NC(=O)[C@@H](Cc3c[nH]cn3)NC(=O)[C@H]3CCCN3C(=O)[C@@H](CO)NC(=O)c3ccc4c(c3)C(=O)OC43c4ccc(O)cc4Oc4cc(O)ccc43)cc2)cc1)[C@H](C)O)C(=O)NCc1ccc(CC(=O)N2CCC[C@@H]2C(=O)N[C@H](CCCCN)C(=O)N[C@H](Cc2ccc(O)cc2)C(=O)N[C@H](CCCNC(=N)N)C(=O)N[C@@H](Cc2ccccc2)C(=O)NCc2ccc(CC(=O)N[C@H](CCCNC(=N)N)C(=O)N[C@H](Cc3ccc(O)cc3)C(=O)N[C@@H](C(=O)N[C@H](CCC(=O)O)C(=O)N[C@@H](C)C(=O)NCc3ccc(CC(=O)NCC(=O)N[C@H](Cc4c[nH]c5ccccc45)C(=O)N[C@H](Cc4c[nH]cn4)C(=O)N[C@H](CCCNC(=N)N)C(=O)N[C@@H](C)C(=O)NCc4ccc(CC(N)=O)cc4)cc3)[C@H](C)O)cc2)cc1 [KRAS-1-6] (5FAM-[dS][dP][dH][dE]F[X1][dP][dS]G[dS]A[X1][dT][dS][dR][dE]L[X1][dP][dK][dY][dR]F[X1][dR][dY][dT][dE]A[X1]G[dW][dH][dR]A-{NHCH2C6H4(4-CH2CONH2)}) | 103.1 | 102.7 | 102.4 | 102.5 | 102.9 | 100.3 | 100.7 | 89.85 | 74.45 | 21 | 21 | −0.8822 | 3880 | 9200 | 5253 | 11760 | 13672 | % signal compared to DMSO (biotinylated GST; assay conc. 19 μM): 62.03* %; blank corrected HTRF (cRaf/K-Ras (G12V) PPI; conc. 1.23E−07): 13441; blank corrected HTRF (cRaf/K-Ras (G12V) PPI; conc. 1.52E−09): 13652

From patent publication US20230393140A1, “BINDING ASSAYS INVOLVING A PLURALITY OF SYNTHETIC COMPOUNDS, TARGETS, AND COUNTER TARGETS” (SRI International, priority 2020, published 2023)
